Reference: patent US11352322B2, “Cyclopropyl-amide compounds as dual LSD1/HDAC inhibitors” (Jubilant Epicore LLC, priority 2016, dated 2022)
Structures can show the parent of a compound that is named as a salt. Where two headings read alike, the source gives them in different places.

How the values were obtained:
MM1S = assay: Anticancer activity: Alamar Blue assay, MM1S; assay type: cell-based; conditions: Homo sapiens, MM1.S, read-out: MM1S EC50
A375 = assay: cells; conditions: Homo sapiens, A-375, 144 h, read-out: Anticancer profileration EC50 A375
Method: (§1) Anticancer Activity: Alamar Blue Assay
(§2) Cells were seeded at 5000 cells/per well in 96-well tissue culture plate and incubated at 37° C./5% CO2. After 16-24 hours, fresh media was added to the wells. Compounds were then (1% DMSO conc.) added to the cells at 10 concentrations ranging from 10-0.0005 uM prepared in 3-fold serial dilutions. […] Alamar Blue™ reagent was added and incubated for 1-3 hours at 37° C./5% CO2. Plates were read on fluorescence reader at 540 nm excitation, 590 nm emission wave lengths.
(§3) As described above, compounds were tested for anticancer activities in different tumor cell lines and GI50 were determined.

HEL-92.1.7 = assay: cells; conditions: Homo sapiens, HEL 92.1.7, 144 h, read-out: Anticancer profileration EC50 HEL-92.1.7
Method: as §1, §2, §3

MDAMB231 = assay: cells; conditions: Homo sapiens, MDA-MB-231, 144 h, read-out: Anticancer profileration EC50 MDAMB231
Method: as §1, §2, §3

MV-4-11 = assay: cells; conditions: Homo sapiens, MV4-11, 144 h, read-out: Anticancer profileration EC50 MV-4-11
Method: as §1, §2, §3

OCI-AML3 = assay: cells; conditions: Homo sapiens, OCI-AML-3, 144 h, read-out: Anticancer profileration EC50 OCI-AML3
Method: as §1, §2, §3

CCRF-CEM = assay: cells; conditions: Homo sapiens, 144 h, read-out: Anticancer profileration EC50 CCRF-CEM
Method: as §1
Cells were seeded at 5000 cells/per well in 96-well tissue culture plate and incubated at 37° C./5% CO2. After 16-24 hours, fresh media was added to the wells. Compounds were then (1% DMSO conc.) added to the cells at 10 concentrations ranging from 10-0.0005 uM prepared in 3-fold serial dilutions. Cells were incubated for 68-72 h at 37° C./5% CO2. Alamar Blue™ reagent was added and incubated for 1-3 hours at 37° C./5% CO2. Plates were read on fluorescence reader at 540 nm excitation, 590 nm emission wave lengths.
as §3

LSD1 = LSD1 (Homo sapiens (Human), UniProt O60341); assay: TR-FRET Assay for LSD1; conditions: read-out: LSD1 IC50
Method: TR-FRET Assay for LSD1 (Perkin Elmer)
Tranylcypromine (TCP), LSD1 inhibitor was procured from Selleckchem. […] Stop Solution containing 300 μM tranylcypromine in 1× LANCE Detection Buffer was added to the wells and incubated for 5 min at RT. Then, Detection mix containing 2 nM Eu-Ab and 50 nM ULight-Streptavidin in 1× LANCE Detection Buffer was prepared and added to the reaction mix. This mixture was incubated for 1 hour at room temperature.

[1] = Metabolic stability in liver microsomes, HLM; conditions: 1 μM, NADPH
Method: (§4) The microsomal suspension was prepared by adding liver microsomes to 100 mM potassium phosphate buffer (pH7.4) to give a final protein concentration of 0.5 mg/mL. The stock solution of NCE (10 mM in DMSO) was added to the microsomes to provide a final concentration of 1 μM. […] Samples were vortexed and centrifuged at 5,000 rpm for 10 min to remove proteins. Supernatant were analyzed on LC-MS/MS.

[2] = Metabolic stability in liver microsomes, MLM; conditions: 1 μM, NADPH
Method: as §4

[3] = biological target: HDAC6 human recombinant enzyme (Homo sapiens (Human), UniProt Q9UBN7); assay: Histone Deacetylase Assay (BPS Biosciences), HDAC6; assay type: biochemical
Text: Histone Deacetylase Assay (BPS Biosciences)
Histone deacetylase assay was done as per manufacturer's instructions.

[4] = human, microsomes, 0.5 h, pH 7.4
Method: as §4

[5] = mouse, microsomes, 0.5 h, pH 7.4
Method: as §4

HDAC6 human recombinant enzyme, sequence (Q9UBN7 whole entry): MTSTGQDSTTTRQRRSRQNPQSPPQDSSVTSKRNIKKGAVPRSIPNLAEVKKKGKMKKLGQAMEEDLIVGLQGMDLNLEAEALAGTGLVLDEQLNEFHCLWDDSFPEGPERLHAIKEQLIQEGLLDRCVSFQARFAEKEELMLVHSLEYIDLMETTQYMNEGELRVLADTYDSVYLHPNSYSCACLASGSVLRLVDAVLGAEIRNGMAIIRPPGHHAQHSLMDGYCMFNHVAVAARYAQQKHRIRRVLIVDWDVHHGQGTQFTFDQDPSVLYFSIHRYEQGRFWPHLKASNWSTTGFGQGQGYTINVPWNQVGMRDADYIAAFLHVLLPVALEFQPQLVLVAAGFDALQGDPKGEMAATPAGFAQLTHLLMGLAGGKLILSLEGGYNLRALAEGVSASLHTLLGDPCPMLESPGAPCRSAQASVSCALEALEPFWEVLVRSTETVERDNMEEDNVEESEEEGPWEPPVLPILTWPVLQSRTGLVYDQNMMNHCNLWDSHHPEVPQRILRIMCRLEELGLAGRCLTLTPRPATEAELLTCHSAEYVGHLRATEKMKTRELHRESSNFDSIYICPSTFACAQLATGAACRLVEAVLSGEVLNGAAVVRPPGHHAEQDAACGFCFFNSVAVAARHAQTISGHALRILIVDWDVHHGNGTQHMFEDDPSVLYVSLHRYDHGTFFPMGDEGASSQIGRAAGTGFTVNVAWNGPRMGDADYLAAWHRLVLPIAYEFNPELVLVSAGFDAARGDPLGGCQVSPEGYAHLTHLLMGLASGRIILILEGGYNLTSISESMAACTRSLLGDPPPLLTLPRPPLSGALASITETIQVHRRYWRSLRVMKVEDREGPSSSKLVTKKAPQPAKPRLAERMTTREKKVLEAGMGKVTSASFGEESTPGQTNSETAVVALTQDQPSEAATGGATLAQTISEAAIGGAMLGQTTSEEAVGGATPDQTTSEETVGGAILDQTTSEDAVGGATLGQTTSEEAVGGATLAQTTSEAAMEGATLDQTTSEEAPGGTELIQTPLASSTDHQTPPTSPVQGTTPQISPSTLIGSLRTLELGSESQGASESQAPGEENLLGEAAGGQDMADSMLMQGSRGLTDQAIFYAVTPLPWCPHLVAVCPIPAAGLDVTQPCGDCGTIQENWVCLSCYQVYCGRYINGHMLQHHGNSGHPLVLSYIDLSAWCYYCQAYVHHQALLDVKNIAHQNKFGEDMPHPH

SMILES	EC50 (MM1S) [nM]	EC50 (A375) [nM]	EC50 (HEL-92.1.7) [nM]	EC50 (MDAMB231) [nM]	EC50 (MV-4-11) [nM]	EC50 (OCI-AML3) [nM]	EC50 (CCRF-CEM) [nM]	IC50 (LSD1) [nM]	Metabolic stability HLM % remaining in 30 min [1] [%]	Metabolic stability MLM % remaining in 30 min [2] [%]	IC50 [3] [nM]	EC50 (MM1S; MM1S cells) [nM]	Metabolic stability HLM % remaining in 30 min [4]	Metabolic stability MLM % remaining in 30 min [5]
O=C(/C=C/c1ccc(CNC2CC2c2ccc(-c3ccc(Cl)cc3)cc2)cc1)NO (centres unmarked) [Example 5, (E)-3-(4-(((2-(4′-chloro-[1,1′-biphenyl]-4-yl)cyclopropyl)amino)methyl)phenyl)-N-hydroxyacrylamide TFA Salt]	88	2300	26	1600	54	146	533	49	86	59				
O=C(NO)c1ccc(CCCN2CC3(CC(NC4CC4c4ccccc4)C3)C2)cc1 (centres unmarked) [Example 46, N-hydroxy-4-(3-(6-((2-phenylcyclopropyl)amino)-2-azaspiro[3.3]heptan-2-1)propyl)benzamide TFA Salt]								26			477	71	54/47%	54/47%
O=C(NO)c1ccc(CCCN2CCC(CNC3CC3c3ccc(F)cc3)CC2)cc1 (centres unmarked) [Example 47, 4-[3-(4-{[2-(4-Fluoro-phenyl)-cyclopropylamino]-methyl}-piperidin-1-yl)-propyl]-N-hydroxy-benzamide TFA Salt]		3600	5	875	5	146	1400	6	54	66	51			
O=C(NO)c1ccc(CCCN2CCC(CNC3CC3c3ccc(OCc4ccc(F)cc4)cc3)CC2)cc1 (centres unmarked) [Example 52, 4-(3-(4-(((2-(4-((4-fluorobenzyl)oxy)phenyl)cyclopropyl)amino)methyl)piperidin-1-yl)propyl)-N-hydroxybenzamide TFA Salt]		1700	5	891	1	22	371	4	79	56	12			
